Experimental data as given in patent US6726908B2, “Pharmaceutical formulation” (SmithKline Beecham p.l.c., priority 1995, dated 2004).
Converted amounts (≈) assume the structure as drawn. Read-outs that look alike come from different tables or passages of the source.

Tests used:
Assay type in all cases: cell-based, Streptococcus pneumoniae
S Pneumoniae 14319 = test: MIC against resistant S Pneumoniae strain 14319
S Pneumoniae 410101 = test: MIC against resistant S Pneumoniae strain 410101
S Pneumoniae N1387 = test: MIC against resistant S Pneumoniae strain N1387
[1] = Streptococcus pneumoniae, read-out: MIC

MIC (S Pneumoniae 14319; [1]) | MIC (S Pneumoniae 410101; [1]) | MIC (S Pneumoniae N1387; [1]) | MIC (S Pneumoniae 14319) | MIC (S Pneumoniae 410101) | MIC (S Pneumoniae N1387) | SMILES
4 µg/mL (≈ 10.9 µM) | 4 µg/mL (≈ 10.9 µM) | 2 µg/mL (≈ 5.47 µM) |  |  |  | CC1(C)S[C@@H]2[C@H](NC(=O)[C@H](N)c3ccc(O)cc3)C(=O)N2[C@H]1C(=O)O [Amoxycillin]
 |  |  | 8 µg/mL (≈ 23.9 µM) | 4 µg/mL (≈ 12 µM) | 2 µg/mL (≈ 5.98 µM) | CC1(C)S[C@@H]2[C@H](NC(=O)Cc3ccccc3)C(=O)N2[C@H]1C(=O)O [Penicillin G]
